Reference: patent publication US7211602B2, “Treatment of neurodegenerative disorders through the modulation of the polyamine pathway” (ALS Therapy Development Foundation, Inc., priority 2001, dated 2007)
Like-named read-outs stand apart in the source and are kept apart here.

What was measured:
[1] = system: patients with advanced non-small cell lung cancer; conditions: Hahm et al. 2002; cited from earlier work
ODC = conditions: cited from earlier work

Description for SOD1 G93A mice: • (i) Model Description: The SOD1 G93A (high copy) mouse model was used as the model for ALS. This mouse model carries 25 copies of the human G93A SOD mutation and is driven by the endogenous promoter. Survival in the mouse is copy dependent. The high copy G93A has a median survival of around 128 days. High molecular weight complexes of mutant SOD protein are seen in the spinal cord beginning around day 30. At day 60 reactive astrocytosis (GFAP reactive) are observed; activated microglia are observed from day 90 onwards.
DFMO was obtained in oral form from ILEX Oncology, Inc (San Antonio, Tex.). • (iv) Methods: Forty (n=40) SOD1 G93A high copy mice obtained from Jackson Laboratory (Bar Harbor, Me.) were separated into two groups of twenty (n=20) with an equal number of males (n=10) and females (n=10) in each group. The groups were also litter matched to reduce group variation. Male animals were singly housed and females were group housed to conserve space. […] When animals had difficulty in moving and taking care of themselves chow and water were replaced with food pellets in bedding and Jell-O for water. • (v) Pharmacological Agent Delivery: All pharmacological agents were administered to SOD1 G93A mice. DFMO was delivered according to a chronic delivery protocol applied in the human glioblastoma trial (UCSF Clinical trial protocol of ALS).
In Example 2, the animals were dosed at 3200 mg/Kg/day of DFMO in drinking water for 21 days followed by a 7 day drug holiday (no DFMO). In Example 3, the animals were continually dosed at 3200 mg/Kg/day of DFMO in drinking water. Controls animals were given water as vehicle. All treatments are performed 7 days per week and treatment was initiated at day 60 of life. The treated group continued to receive 3200 mg/kg/day of DFMO in drinking water until a neurological score of 2 (See section (vi) below) at which point drug was delivered via intraperitineal injection (IP) injection. When a neurological score of 2 is attained, the animals are no longer capable of drinking themselves due to paralysis. At this point, the same dosage of DFMO is administered to the animal in IP injection form. Controls were given water as vehicle until a neurological score of 2 at which point they were injected with saline as vehicle.
In Example 6, hydroxyurea was administered by intraperitineal injection at a dose of 250 mg/Kg/day once daily for 7 days a week, beginning at day 50 until day 110.
The animals are sacrificed at this stage if alive. • (vii) End Points and Statistics: The primary end point is survival with secondary end points of neurological score and body weight. Neurological score observations and body weight are made and recorded five days per week. • (viii) Statistical Analysis: Statistical analysis on body weight and neurological score was performed using mixed linear model repeated measure ANOVA. Survival analysis was performed by Kaplan-Meier analysis using the frailty model for sex and litter correction.

For `NCCCC(N)(C(=O)O)C(F)F` (racemic) [DFMO, 2-(Difuoromethyl)-DL-ornithine], the “effect in male mice, ongoing IP injection study” value (SOD1 G93A mice; IP injection, 3200 mg/kg, male mice) was “positive male trend”, the “Percent survival analysis: life span” value (SOD1 G93A mice; continuous dosing 3200 mg/Kg/day in drinking water, no drug holiday, until death, FIGS. 4, 6 and 8) was “extended the life span” and the “Neurological score analysis, combined male and female” value (SOD1 G93A mice; continuous dosing 3200 mg/Kg/day, combined male and female, FIG. 5) was “protective”. The “Neurological score analysis, female” value (SOD1 G93A mice; continuous dosing 3200 mg/Kg/day, FIG. 9) was “protective”, the “Neurological score analysis, male” value (SOD1 G93A mice; continuous dosing 3200 mg/Kg/day, male, FIG. 7) was “protective” and the “Neurological score analysis, combined results” value (SOD1 G93A mice; discontinuous dosing 3200 mg/Kg/day, combined male and female mice) was “No effect”. The “Neurological score analysis, female mice” value (SOD1 G93A mice; discontinuous dosing 3200 mg/Kg/day, female mice, during the drug delivery period, FIG. 3) was “protective”, the “Neurological score analysis, male mice” value (SOD1 G93A mice; discontinuous dosing 3200 mg/Kg/day, male mice) was “No effect” and the “Percent survival analysis: onset of disease and survival” value (SOD1 G93A mice; discontinuous dosing, 3200 mg/Kg/day in drinking water, 21 days on / 7 day holiday, FIG. 2) was “delays the onset of disease and extends the survival”. For the same compound, the “deaths of animals in the treatment group that occurred during the drug holiday or a few days immediately succeeding the holiday” value (SOD1 G93A mice; female SOD1 G93A mice, 3200 mg/Kg/day in drinking water for 21 days followed by 7 day drug holiday, control group 30%, FIG. 2) was 70%.

For `CCNCCCNCCCNCCCNCC` [DENSPM, N(1),N(11)-diethylnorspermine], the “safety of administration to patients” value [1] is listed as “minimal toxicity”, the “Neurological score analysis, female” value (SOD1 G93A mice; intraperitoneal 24 mg/kg/day twice daily till death, FIG. 13) is listed as “protective” and the “Percent survival analysis: onset of disease and survival” value (SOD1 G93A mice; intraperitoneal 24 mg/kg/day twice daily, 7 days a week till death, female mice, FIG. 12) is listed as “delays the onset of disease and extends the survival”.

For `NC(=O)NO` [hydroxyurea], the “Percent survival analysis: life span” value (SOD1 G93A mice; intraperitoneal 250 mg/Kg/day once daily, day 50 until day 110, female mice, FIG. 10) was “extended the life span” and the “Neurological score analysis, female” value (SOD1 G93A mice; intraperitoneal 250 mg/Kg/day once daily, day 50 until day 110, FIG. 11) was “protective”.

In the case of `NCCCCNCCCN` [spermidine], the “concentration in the culture medium that can inhibit ODC production for hours” value (ODC) is listed as 50 µM.
